According to article PMC3904413, “Allosteric modulation of GABAA receptors by extracellular ATP” (Molecular Brain, 2014):

System: T1, GABAARs (native, cultured hippocampal neurons)
T1 construct: gene Gabra1
Conditions: GABA 100 μM by pressure ejection, -60 mV; allosteric potentiator; error ± 0.3 in Figure 1 legend

## Nc1ncnc2c1ncn2[C@@H]1O[C@H](COP(=O)(O)OP(=O)(O)OP(=O)(O)O)[C@@H](O)[C@H]1O [ATP]
  EC50: 2100 ± 200 µM
